Measurements: patent publication EP4620955A1, “MC4R ANTAGONIST COMPOUND, PHARMACEUTICAL COMPOSITION AND PHARMACEUTICAL USE THEREOF” (Changchun Genescience Pharmaceutical Co., Ltd., priority 2022, dated 2024)
Like-named read-outs stand apart in the source and are kept apart here.

Assays:
[1] = Pharmacokinetic study on the tested compound in SD male rats; type: in vivo; settings: IV 1 mpk/PO 2 mpk; for AUC / Cmax / clearance / half-life: Sprague-Dawley (SD), rat, plasma
Method: On the day of administration, the tested compound was prepared with 5% DMSO + 5% Solutol + 90% Saline as a solvent into a solution for administration for use.
The solution for administration was administered to an intravenous injection IV group at a dose of 1 mg/kg in a concentration of 0.2 mg/mL. The solution for administration was administered to an oral gavage PO group at a dose of 2 mg/kg in a concentration of 0.2 mg/mL. The animals in the PO group were required to fast overnight in advance, drink water freely, and be fed 4 hours after administration. The IV group was not required to fast.
The animals were weighed before administration. On the day of administration, the solution was IV/PO-administered once in an administration amount calculated based on the weight. In the IV group, blood was collected from veins at 0.083 h, 0.25 h, 0.5 h, 1.0 h, 2.0 h, 4.0 h, 8.0 h, and 24 h after administration. In the PO group, blood was collected from veins at 0.25 h, 0.5 h, 1.0 h, 2.0 h, 4.0 h, 6.0 h, 8.0 h, and 24 h after administration. The amount of blood collected was about 0.20 mL. K2-EDTA was used in blood collection tubes as an anticoagulant. The collected blood sample was centrifuged (centrifugation conditions: 6800 g, 6 min, 2°C to 8°C) within 1 h to obtain plasma. The to-be-tested sample was stored in a refrigerator at -80°C before analysis.
The concentration of the tested compound in the plasma of the SD male rats was detected by the validated LC-MS/MS method.

CYP 3A4M = target: T1, CYP 3A4M (Homo sapiens, UniProt P08684); experiment: Inhibition of P450 enzyme (CYP 3A4, midazolam as substrate) in human liver microsomes; type: in vitro ADME
T1 construct: from tissue; host or cells: human liver microsomes (HLM)
T1 sequence (P08684 whole entry): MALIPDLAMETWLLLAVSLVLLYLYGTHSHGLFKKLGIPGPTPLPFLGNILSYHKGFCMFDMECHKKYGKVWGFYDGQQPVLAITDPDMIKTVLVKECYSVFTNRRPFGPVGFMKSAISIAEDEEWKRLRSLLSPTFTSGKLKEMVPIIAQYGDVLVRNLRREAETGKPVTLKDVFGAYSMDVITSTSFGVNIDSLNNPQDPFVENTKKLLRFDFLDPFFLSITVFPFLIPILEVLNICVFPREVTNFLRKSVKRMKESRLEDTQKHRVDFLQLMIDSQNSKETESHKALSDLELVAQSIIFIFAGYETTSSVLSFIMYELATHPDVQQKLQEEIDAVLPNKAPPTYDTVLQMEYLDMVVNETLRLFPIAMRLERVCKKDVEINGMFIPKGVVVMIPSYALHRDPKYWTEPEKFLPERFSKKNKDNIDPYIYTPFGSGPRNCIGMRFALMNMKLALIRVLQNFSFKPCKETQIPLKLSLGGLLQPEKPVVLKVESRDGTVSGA
Method: The inhibitory effect of the tested compound on 3A4-M (with midazolam as a substrate) in human liver microsomes is evaluated in vitro to assess the safety of the compound.
In this study, the inhibition of CYP 3A4 enzyme in human liver microsomes by the tested compound was investigated using the human liver microsomal system and the cytochrome P450 enzyme probe substrate recommended by the FDA Guidance for In Vitro Drug Interaction Studies. The human liver microsomes were incubated separately with the tested compound of different concentrations (0 µM to 30.0 µM) and corresponding probe substrates. Then, the changes of activity of the CYP enzyme were determined, and the IC50 value was calculated, to evaluate the inhibitory potential of the tested compound on the CYP 3A4 enzyme.
Test group (TG): The human liver microsomes were incubated separately with the tested compound of different concentrations, NADPH (in a final concentration of 2.00 mM), and probe substrates (Table 4) of different enzymes in subfamilies for 5 min.
Positive control group (PC): The human liver microsomes were incubated separately with an inhibitor (Table 4), NADPH (in a final concentration of 2.00 mM), and a probe substrate (Table 4) of 3A4M for 5 min. Table 4 Probe substrate of each enzyme in the subfamily, inhibitor, and incubation system
At the end of the incubation, the reaction was terminated with a stop solution.
8 µL of 30 mM test sample was transferred to 12 µL of DMSO to give a 12 mM test sample intermediate solution, and then diluted with DMSO to give test sample working solutions in different concentrations (12 mM, 4 mM, 1.33 mM, 0.433 mM, 0.147 mM, 0.049 mM, and 0.0164 mM).
To 12 µL of DMSO was added 8 µL of 2.5 mM CYP3A4 inhibitor ketoconazole stock solution to give a 1 mM positive control inhibitor working solution.
(§1) 199 µL of 0.2 mg/mL HLM and 1 µL of test sample working solution (12 mM, 4 mM, 1.33 mM, 0.433 mM, 0.147 mM, 0.049 mM, and 0.0164 mM) were mixed uniformly. 30 µL of this liver microsome solution was added to a 96-well plate, and then 10 µL of substrate working solution (320 µM testosterone or 20 µM midazolam) was added. This preparation process was carried out in duplicate. After pre-incubation at 37°C for 5 min, 15 µL of 8 mM NADPH solution pre-warmed at 37°C for 5-10 min was added to initiate the reaction. After incubation in the 96-well plate at 37°C for 5 min, 180 µL of acetonitrile/methanol (ACN:MeOH = 1:1) solution containing the internal standard (IS) was added to terminate the reaction. The 96-well plate was shaken at 600 rpm for 5-10 min, and then centrifuged at 6000 rpm for 15 min. 80 µL of supernatant was taken and added to 120 µL of ultrapure water, shaken uniformly, and then detected by LC-MS/MS.
as §1, with “1 mM positive control inhibitor (ketoconazole)” for “test sample”, “solution” for “solution (12 mM, 4 mM, 1.33 mM, 0.433 mM, 0.147 mM, 0.049 mM, and 0.0164 mM)”, “(20” for “(320 µM testosterone or 20”, “ACN:MeOH (1:1)” for “acetonitrile/methanol (ACN:MeOH = 1:1)”, “IS” for “the internal standard (IS)”, “LC-MS/MS. […]” for “LC-MS/MS.”

MC4R = target: T2, MC4R (Homo sapiens, UniProt P32245); experiment: Assay of MC4R antagonist activity in cells in vitro (cAMP assay, Melanotan I stimulation); type: cell-based; settings: flipin-293-MC4 cell line, Melanotan I as agonist
T2 construct: expressed in transfected cells; host or cells: flipin-293-MC4 (Flp-In 293 host, hygromycin selection)
T2 sequence (P32245 whole entry): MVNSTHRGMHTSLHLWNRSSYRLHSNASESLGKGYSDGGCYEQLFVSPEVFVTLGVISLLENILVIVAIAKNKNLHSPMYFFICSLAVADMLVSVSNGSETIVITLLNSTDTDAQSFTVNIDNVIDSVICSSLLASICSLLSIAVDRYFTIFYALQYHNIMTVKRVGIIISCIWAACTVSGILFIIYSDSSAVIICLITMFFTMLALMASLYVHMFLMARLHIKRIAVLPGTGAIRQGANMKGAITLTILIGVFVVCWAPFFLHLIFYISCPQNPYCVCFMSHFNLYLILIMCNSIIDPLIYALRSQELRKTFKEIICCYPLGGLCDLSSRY
Method: Test Example 1: Assay of MC4R antagonist activity in cells in vitro
a. Experimental consumables:
b. Experimental steps • ✔ Cell line: flipin-293-MC4 • ✔ Cell culture medium: DMEM, 10% fetal bovine serum, 1 × PS, 200 µg/mL hygromycin • ✔ Experimental buffer: HBSS, 20 mM HEPES, 0.1% BSA, 500 µM IBMX • ✔ Positive compound: ML00253764 c. Antagonist detection • 1. Digested cells were suspended in the experimental buffer, and then inoculated into the 384-well cell culture plate. • 2. The to-be-detected compound was added to the cell plate, and incubated at 37°C for 10 min. • 3. Melanotan I was added to the cell plate, and incubated at 37°C for 30 min. • 4. Two detection reagents EU cAMP tracer and ulight anti camp were thawed and diluted with a lysis solution in the kit. • 5. The diluted detection reagents were added to the cell plate and incubated at room temperature for 1 h. • 6. Reading was carried out by Envision. (Excitation light: 340 nm, emission light: 615 nm and 665 nm) d. Data analysis • 1. %Inhibition calculation: %Inhibition = (Signalcmpd−SignalAve_VC)/(SignalAve_PC−SignalAve_VC) × 100. [formula] • Signalcmpd: compound signal value; • SignalAve_VC: negative control signal value; • SignalAve_PC: positive control signal value; • %inhibition: inhibition percentage. • 2. Calculation of IC50 of the compound using the nonlinear fitting equation in GraphPad: Y = Bottom + (Top−Bottom)/(1+10^(∧)((LogIC50−X)×HillSlope)) [formula] X: logarithmic value of the concentration of the compound; Y: inhibition percentage

[2] = human liver microsomes 0.100 mg/mL, midazolam 5.00 µM as substrate, 5 min incubation, read-out: CYP 3A4M IC50

## COc1cc([C@@H](C)C(=O)N2CC[C@H](Nc3ccc(-c4ncccn4)c(C)n3)C2)c(Cl)cn1 [Compound 083-1, (R)-2-(5-chloro-2-methoxypyridine-4-yl)-1-((S)-3-((6-methyl-5-(pyrimidine-2-yl)pyridine-2-yl)amino)pyrrolidine-1-yl)propane-1-one]
[1]
  F: 31.3%
  AUC: 240 ng·h/mL
  Cmax: 156 ng/mL
  clearance: 43.7 mL/min/kg
  half-life: 39 min
CYP 3A4M; [2]
  IC50: 5800 nM
MC4R
  IC50: 1.82 nM

## COc1cc([C@@H](C)C(=O)N2CC[C@H](Nc3ccc(-c4nccc(C#N)n4)c(C)n3)C2)c(F)cn1 [Compound 111, 2-(6-(((S)-1-((R)-2-(5-fluoro-2-methoxypyridine-4-yl)propionyl)pyrrolidine-3-yl)amino)-2-methylpyridine-3-yl)pyrimidine-4-nitrile]
CYP 3A4M; [2]
  IC50: 2940 nM
MC4R
  IC50: 3.4 nM

## COc1cc([C@@H](C)C(=O)N2C[C@@H](Nc3ccc(-c4ncccn4)c(C)n3)C3(CC3)C2)c(Cl)cn1 [Compound 114, (R)-2-(5-chloro-2-methoxypyridine-4-yl)-1-((S)-7-((6-methyl-5-(pyrimidine-2-yl)pyridine-2-yl)amino)-5-azaspiro[2.4]heptane-5-yl)propan-1-one]
[1]
  F: 54.0%
  AUC: 450 ng·h/mL
  Cmax: 197 ng/mL
  clearance: 39.9 mL/min/kg
  half-life: 58.8 min
CYP 3A4M; [2]
  IC50: 29500 nM
MC4R
  IC50: 2.45 nM

## COc1cc([C@@H](C)C(=O)N2C[C@@H](Nc3ccc(-c4nccc(C#N)n4)c(C)n3)C3(CC3)C2)c(F)cn1 [Compound 116, 2-(6-(((S)-5-((R)-2-(5-fluoro-2-methoxypyridine-4-yl)propionyl)-5-azaspiro[2.4]heptane-7-yl)amino)-2-methylpyridine-3-yl)pyrimidine-4-nitrile]
CYP 3A4M; [2]
  IC50: > 30000 nM
MC4R
  IC50: 2.15 nM

## COc1cc([C@@H](C)C(=O)N2C[C@@H](Nc3ccc(-c4cn(C)c(OC(F)F)n4)c(C)n3)C3(CC3)C2)c(F)cn1 [Compound 185, (R)-1-((S)-7-((5-(2-(difluoromethoxy)-1-methyl-1H-imidazol-4-yl)-6-methylpyridine-2-yl)amino)-5-azaspiro[2.4]hept-5-yl)-2-(5-fluoro-2-methoxypyridine-4-yl)propan-1-one]
[1]
  F: 22.9%
  AUC: 170 ng·h/mL
  Cmax: 129 ng/mL
  clearance: 45.4 mL/min/kg
  half-life: 40.8 min
MC4R
  IC50: 0.54 nM

## COc1cc([C@@H](C)C(=O)N2CC[C@H](Nc3ccc(-c4ncccn4)c(C)n3)C2)c(Br)cn1 [Compound 200, (R)-2-(5-bromo-2-methoxypyridine-4-yl)-1-((S)-3-((6-methyl-5-(pyrimidine-2-yl)pyridine-2-yl)amino)pyrrolidine-1-yl)propan-1-one]
CYP 3A4M; [2]
  IC50: 3750 nM
MC4R
  IC50: 0.98 nM

## COc1cc([C@@H](C)C(=O)N2C[C@@H](Nc3ccc(-c4ncccn4)c(C)n3)C3(CC3)C2)c(Br)cn1 [Compound 201, (R)-2-(5-bromo-2-methoxypyridine-4-yl)-1-((S)-7-((6-methyl-5-(pyrimidine-2-yl)pyridine-2-yl)amino)-5-azaspiro[2.4]hept-5-yl)propan-1-one]
CYP 3A4M
  IC50: > 30000 nM
MC4R
  IC50: 1.41 nM
